Tests used:
BRD4 (BDI_K57-E168) = target: T1, BRD4 (BDI_K57-E168) (Homo sapiens, UniProt O60885); test: TR-FRET bromodomain binding assay, BRD4 first bromodomain; details: His-tagged BD1, 100 nM Alexa647 probe; Ki calculated from IC50; dilution protocol A-G
T1 construct: BD1: amino acids K57-E168; made in house
Method in brief: (§1)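 His-tagged BRD4 BD1 (K57-E168) or BD2 (8 nM) with Eu-anti-His antibody and Alexa647-labeled BET-inhibitor probe (100 nM for BDI, 30 nM for BDII), pH 6.0 phosphate buffer, 2% DMSO, 1 h at room temperature. TR-FRET (Ex 340, Em 495/520); IC50 by 4-parameter fit, converted to Ki using probe Kd and concentration.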

BRD4 (BDII_E352-M457) = target: T2, BRD4 (BDII_E352-M457) (Homo sapiens, UniProt O60885); test: TR-FRET bromodomain binding assay, BRD4 second bromodomain
T2 construct: made in house
Method in brief: as §1

[1] = system: breast cancer cell line MX-1; test: MX-1 cell line proliferation assay (3-day, Cell Titer Glo); assay type: cell-based; details: Homo sapiens, MX1, MX-1 cells, 72 h, top concentration 3 μM, read-out: Cellular proliferation: EC50
Procedure: The impact of compounds of the Examples on cancer cell proliferation was determined using the breast cancer cell line MX-1 (ATCC) in a 3-day proliferation assay and the data are reported in Table 1. MX-1 cells were maintained in RPMI 1640 medium (Sigma) supplemented with 10% FBS at 37 C.° and an atmosphere of 5% CO2. For compound testing, MX-1 cells were plated in 96-well black bottom plates at a density of 5000 cells/well in 90 μL of culture media and incubated at 37° overnight to allow cell adhesion and spreading. Compound dilution series were prepared in DMSO via a 3-fold serial dilution from 3 mM to 0.1 μM. The DMSO dilution series were then diluted 1:100 in phosphate buffered saline, and 10 μL of the resulted solution were added to the appropriate wells of the MX-1 cell plate. The final compound concentrations in the wells were 3, 1, 0.3, 0.1, 0.03, 0.01, 0.003, 0.001, 0.0003 and 0.0001 μM.
Luminescence readings from the Cell Titer Glo assay were normalized to the DMSO treated cells and analyzed using the GraphPad Prism software with sigmoidal curve fitting to obtain EC50s. The minimum significant ratio (MSR) was determined to evaluate assay reproducibility (Eastwood et al., (2006) J Biomol Screen, 11: 253-261).

| Compound | Ki (BRD4 (BDI_K57-E168)) [nM] | Ki (BRD4 (BDII_E352-M457)) [nM] | EC50 [1] [nM] |
| --- | --- | --- | --- |
| Cc1[nH]c(-c2ccccc2Oc2ccccc2)c2cc(-c3nc(Cn4cncn4)no3)[nH]c(=O)c12 [Example 64, 6-(3-((1H-1,2,4-triazol-1-yl)methyl)-1,2,4-oxadiazol-5-yl)-3-methyl-1-(2-phenoxyphenyl)-2H-pyrrolo[3,4-c]pyridin-4(5H)-one] | 2.28 | 7.11 | 29.2 |
| Cc1[nH]c(-c2ccccc2Oc2ccccc2)c2cc(C(=O)NCC3CCOC3)[nH]c(=O)c12 (stereo not drawn) [Example 36, 3-methyl-4-oxo-1-(2-phenoxyphenyl)-N-(tetrahydrofuran-3-ylmethyl)-4,5-dihydro-2H-pyrrolo[3,4-c]pyridine-6-carboxamide] | 8.83 | 20.9 | 188 |
| Cc1[nH]c(-c2ccccc2Oc2ccccc2)c2cc(-c3nc(-c4cccnc4)no3)[nH]c(=O)c12 [Example 60, 3-methyl-1-(2-phenoxyphenyl)-6-(3-(pyridin-3-yl)-1,2,4-oxadiazol-5-yl)-2H-pyrrolo[3,4-c]pyridin-4(5H)-one] | 13 | 116 | 111 |
| Cc1[nH]c(-c2ccccc2Oc2ccccc2)c2cc(C(=O)NC3CCOC3)[nH]c(=O)c12 (stereo not drawn) [Example 37, 3-methyl-4-oxo-1-(2-phenoxyphenyl)-N-(tetrahydrofuran-3-yl)-4,5-dihydro-2H-pyrrolo[3,4-c]pyridine-6-carboxamide] | 10.1 | 13.9 | 161 |
| Cc1[nH]c(-c2ccccc2Oc2ccccc2)c2cc(C(=O)Nc3ccncc3)[nH]c(=O)c12 [Example 28, 3-methyl-4-oxo-1-(2-phenoxyphenyl)-N-(pyridin-4-yl)-4,5-dihydro-2H-pyrrolo[3,4-c]pyridine-6-carboxamide] | 42.7 | 16.8 | 515 |
| Cc1[nH]c(-c2cc(Cl)ccc2Oc2ccc(F)cc2F)c2cc(C(N)=O)[nH]c(=O)c12 [Example 32, 1-[5-chloro-2-(2,4-difluorophenoxy)phenyl]-3-methyl-4-oxo-4,5-dihydro-2H-pyrrolo[3,4-c]pyridine-6-carboxamide] | 22.8 | 158 | 102 |
| Cc1[nH]c(-c2cc(CO)ccc2Oc2ccc(F)cc2F)c2c1C(=O)NCC2 [Example 103, 1-[2-(2,4-difluorophenoxy)-5-(hydroxymethyl)phenyl]-3-methyl-2,5,6,7-tetrahydro-4H-pyrrolo[3,4-c]pyridin-4-one] | 122 | 198 | 239 |
| Cc1[nH]c(-c2ccccc2Oc2ccccc2)c2cc(CO)[nH]c(=O)c12 [Example 18, 6-(hydroxymethyl)-3-methyl-1-(2-phenoxyphenyl)-2H-pyrrolo[3,4-c]pyridin-4(5H) one] | 15.1 | 31.6 | 90.1 |
| Cc1[nH]c(-c2ccccc2Oc2ccccc2)c2cc(C(=O)Nc3nccs3)[nH]c(=O)c12 [Example 26, 3-methyl-4-oxo-1-(2-phenoxyphenyl)-N-(thiazol-2-yl)-4,5-dihydro-2H-pyrrolo[3,4-c]pyridine-6-carboxamide] | 56.8 | 118 | 442 |
| Cc1[nH]c(-c2ccccc2Oc2ccccc2)c2cc(C(=O)NC[C@H]3CCNC3)[nH]c(=O)c12 [Example 58, (S)-3-methyl-4-oxo-1-(2-phenoxyphenyl)-N-(pyrrolidin-3-ylmethyl)-4,5-dihydro-2H-pyrrolo[3,4-c]pyridine-6-carboxamide] | 2.02 | 16 | 329 |
| Cc1[nH]c(-c2ccccc2Oc2ccccc2)c2nc[nH]c(=O)c12 [Example 85, 5-methyl-7-(2-phenoxyphenyl)-3,6-dihydro-4H-pyrrolo[3,4-d]pyrimidin-4-one] | 92.4 | 720 | 1240 |
| Cc1[nH]c(-c2ccccc2Oc2ccccc2)c2cc(C(=O)NCc3ccco3)[nH]c(=O)c12 [Example 31, N-(furan-2-ylmethyl)-3-methyl-4-oxo-1-(2-phenoxyphenyl)-4,5-dihydro-2H-pyrrolo[3,4-c]pyridine-6-carboxamide] | 87.6 | 155 | 182 |
| Cc1[nH]c(-c2ccccc2Oc2ccccc2)c2cc(-c3nc(C4CC4)no3)[nH]c(=O)c12 [Example 63, 6-(3-cyclopropyl-1,2,4-oxadiazol-5-yl)-3-methyl-1-(2-phenoxyphenyl)-2H-pyrrolo[3,4-c]pyridin-4(5H)-one] | 43.5 | 257 | 139 |
| Cc1[nH]c(-c2ccccc2Oc2ccccc2)c2cc(C(=O)NC(C)(C)C#N)[nH]c(=O)c12 [Example 52, N-(2-cyanopropan-2-yl)-3-methyl-4-oxo-1-(2-phenoxyphenyl)-4,5-dihydro-2H-pyrrolo[3,4-c]pyridine-6-carboxamide] | 36.9 | 97.5 | 763 |
| Cc1nc2c(-c3ccccc3Oc3ccccc3)[nH]c(C)c2c(=O)[nH]1 [Example 89, 2,5-dimethyl-7-(2-phenoxyphenyl)-3,6-dihydro-4H-pyrrolo[3,4-d]pyrimidin-4-one] | 212 | 497 | 963 |
| CCOC(=O)c1cc2c(-c3cc(NS(C)(=O)=O)ccc3Oc3ccccc3)[nH]c(C)c2c(=O)[nH]1 [Example 5, ethyl 3-methyl-1-(5-(methylsulfonamido)-2-phenoxyphenyl)-4-oxo-4,5-dihydro-2H-pyrrolo[3,4-c]pyridine-6-carboxylate] | 1.44 | 9.51 | 47.3 |
| CCOC(=O)c1cc2c(-c3cc(F)ccc3OCC3CC3)[nH]c(C)c2c(=O)[nH]1 [Example 69, ethyl 1-[2-(cyclopropylmethoxy)-5-fluorophenyl]-3-methyl-4-oxo-4,5-dihydro-2H-pyrrolo[3,4-c]pyridine-6-carboxylate] | 52.2 | 416 | > 3000 |
| COC(=O)c1cc2c(-c3ccccc3Oc3ccccc3)[nH]c(C)c2c(=O)[nH]1 [Example 1, methyl 3-methyl-4-oxo-1-(2-phenoxyphenyl)-4,5-dihydro-2H-pyrrolo[3,4-c]pyridine-6-carboxylate] | 3.04 | 24.6 | 67 |
| Cc1[nH]c(-c2ccccc2Oc2ccccc2)c2cc(C(=O)NCC3CNCC3(F)F)[nH]c(=O)c12 (stereo not drawn) [Example 59, N-[(4,4-difluoropyrrolidin-3-yl)methyl]-3-methyl-4-oxo-1-(2-phenoxyphenyl)-4,5-dihydro-2H-pyrrolo[3,4-c]pyridine-6-carboxamide] | 3.67 | 59.7 | 223 |
| Cc1[nH]c(-c2cc(NS(C)(=O)=O)ccc2Oc2ccc(F)cc2F)c2cn[nH]c(=O)c12 [Example 80, N-[4-(2,4-difluorophenoxy)-3-(7-methyl-1-oxo-2,6-dihydro-1H-pyrrolo[3,4-d]pyridazin-5-yl)phenyl]methanesulfonamide] | 3.26 | 24.4 | 92.2 |
| CCS(=O)(=O)Nc1ccc(Oc2ccccc2)c(-c2[nH]c(C)c3c(=O)[nH]c(C(=O)OC)cc23)c1 [Example 7, methyl 1-(5-(ethylsulfonamido)-2-phenoxyphenyl)-3-methyl-4-oxo-4,5-dihydro-2H-pyrrolo[3,4-c]pyridine-6-carboxylate] | 2.15 | 15.9 | 25.7 |
| CCOC(=O)c1cc2c(-c3cc(NS(=O)(=O)CC)ccc3Oc3ccccc3)[nH]c(C)c2c(=O)[nH]1 [Example 6, ethyl 1-(5-(ethylsulfonamido)-2-phenoxyphenyl)-3-methyl-4-oxo-4,5-dihydro-2H-pyrrolo[3,4-c]pyridine-6-carboxylate] | 1.23 | 3.31 | 32.9 |
| Cc1[nH]c(-c2ccccc2Oc2ccccc2)c2cc(-c3nc(-c4ccccn4)no3)[nH]c(=O)c12 [Example 67, 3-methyl-1-(2-phenoxyphenyl)-6-(3-(pyridin-2-yl)-1,2,4-oxadiazol-5-yl)-2H-pyrrolo[3,4-c]pyridin-4(5H)-one] | 9.45 | 78 | 80.5 |
| CCS(=O)(=O)Nc1ccc(Oc2ccc(F)cc2F)c(-c2[nH]c(C)c3c(=O)[nH]ncc23)c1 [Example 79, N-[4-(2,4-difluorophenoxy)-3-(7-methyl-1-oxo-2,6-dihydro-1H-pyrrolo[3,4-d]pyridazin-5-yl)phenyl]ethanesulfonamide] | 1.78 | 5.91 | 88.6 |
| Cc1[nH]c(-c2cc(N)ccc2Oc2ccc(F)cc2F)c2cn[nH]c(=O)c12 [Example 78, 5-[5-amino-2-(2,4-difluorophenoxy)phenyl]-7-methyl-2,6-dihydro-1H-pyrrolo[3,4-d]pyridazin-1-one] | 3.31 | 34.1 | 60.5 |

— US9050346B2, “Bromodomain inhibitors” (AbbVie Inc., priority 2013, dated 2015)
